According to patent publication US10905665B2, “Chemical modulators of signaling pathways and therapeutic use” (Duke University, priority 2015, dated 2021):

System: Wnt/β-catenin transcription
Test: Wnt-3A-stimulated TOPFlash reporter assay in HEK293 cells
Format: cell-based
Conditions: 0.5 μM
Procedure: Stably transfected cells were seeded in 100 μl of cell growth medium/well in 96-well plates at 100% confluency. Fifty microliters of Wnt-3A conditioned medium containing the chemical compounds to be tested or DMSO was added to each well. After an 8 hour treatment, the cells were washed once with PBS and lysed with 55 μl of Passive Lysis Buffer supplied in the Dual-Luciferase Reporter Assay kit (Promega, Madison, Wis.). Twenty-five microliters of cell lysate was used for measuring luciferase activity in a 96-well plate reader (FluoStar Optima, BMG Labtech, Chicago, Ill.). Data were fit using GraphPad Prism (mean±SEM, n>=2).

SMILES | Inhibition Wnt/β-catenin transcription TopFlash, % inhibition @ 0.5 μM
O=C(CCCCCN1C(=O)C=CC1=O)Oc1ccc(Cl)cc1C(=O)Nc1ccc([N+](=O)[O-])cc1Cl [Compound 67, 4-chloro-2-((2-chloro-4-nitrophenyl)carbamoyl)phenyl 6-(2,5-dioxo-2,5-dihydro-1H-pyrrol-1-yl)hexanoate] | 75% inhibition
CC(C)C(=O)Oc1ccc(Cl)cc1C(=O)Nc1ccc([N+](=O)[O-])cc1Cl [Compound 64, 4-chloro-2-((2-chloro-4-nitrophenyl)carbamoyl)phenyl isobutyrate] | 70% inhibition
CC(C)(C)OC(=O)CCC(=O)Oc1ccc(Cl)cc1C(=O)Nc1ccc([N+](=O)[O-])cc1Cl [Compound 65, tert-butyl (4-chloro-2-((2-chloro-4-nitrophenyl)carbamoyl)phenyl) succinate] | 60% inhibition
CCCC(CCC)C(=O)Oc1ccc(Cl)cc1C(=O)Nc1ccc([N+](=O)[O-])cc1Cl [Compound 66, 4-chloro-2-((2-chloro-4-nitrophenyl)carbamoyl)phenyl 2-propylpentanoate] | 30% inhibition

Same assay, conditions: 1 μM

SMILES | Inhibition Wnt/β-catenin transcription TopFlash, % inhibition @ 1 μM
O=C(Nc1ccc(C(F)(F)F)cc1Br)c1cc(Cl)ccc1O [Compound 28, N-(2-bromo-4-(trifluoromethyl)phenyl)-5-chloro-2-hydroxybenzamide] | 82% inhibition
O=c1oc2ccc(Cl)cc2c(=O)n1-c1ccc(C(F)(F)F)cc1F [Compound 76, 6-chloro-3-(2-fluoro-4-(trifluoromethyl)phenyl)-2H-benzo[e][1,3]oxazine-2,4(3H)-dione] | 90% @ 1 μM
Cc1ccc(S(=O)(=O)Nc2ccccc2C(=O)Nc2ccc([N+](=O)[O-])cc2)cc1 [C, 2-((4-methylphenyl)sulfonamido)-N-(4-nitrophenyl)benzamide, reference compound] | 47% inhibition
COc1cc(O)c(C(=O)Nc2ccc([N+](=O)[O-])cc2Cl)cc1Cl [Compound 54, 5-chloro-N-(2-chloro-4-nitrophenyl)-2-hydroxy-4-methoxybenzamide] | 70% inhibition

Same assay, conditions: 5 μM

SMILES | Inhibition Wnt/β-catenin transcription TopFlash, % inhibition @ 5 μM
O=C(Nc1ccc(C(F)(F)F)cc1Cl)c1cc2ccccc2cc1O [Compound 44, N-(2-chloro-4-(trifluoromethyl)phenyl)-3-hydroxy-2-naphthamide] | 80% inhibition
O=C(Nc1ccc(C(F)(F)F)cc1Cl)c1ccc2ccccc2c1O [Compound 45, N-(2-chloro-4-(trifluoromethyl)phenyl)-1-hydroxy-2-naphthamide] | 60% inhibition

Same assay, conditions: Homo sapiens, HEK293, 8 h

SMILES | inhibition at 10 µM | inhibition at 2 µM
O=C(Nc1ccc([N+](=O)[O-])c(N2CCOCC2)c1)c1cc(Cl)ccc1O [Compound 34, 5-chloro-2-hydroxy-N-(3-morpholino-4-nitrophenyl)benzamide] | 40% | –
COc1cc(NC(=O)c2cc(Cl)ccc2O)ccc1[N+](=O)[O-] [Compound 35, 5-chloro-2-hydroxy-N-(3-methoxy-4-nitrophenyl)benzamide] | 40% | –
C=CCOc1cc([N+](=O)[O-])ccc1NC(=O)c1cc(Cl)ccc1O [Compound 30, N-(2-(allyloxy)-4-nitrophenyl)-5-chloro-2-hydroxybenzamide] | 98% | –
O=CCOc1cc([N+](=O)[O-])ccc1NC(=O)c1cc(Cl)ccc1O [Compound 31, 5-chloro-2-hydroxy-N-(4-nitro-2-(2-oxoethoxy)phenyl)benzamide] | – | 55%
O=C(Nc1ccc([N+](=O)[O-])c(Cl)c1)c1cc(Cl)ccc1O [Compound 36, 5-chloro-N-(3-chloro-4-nitrophenyl)-2-hydroxybenzamide] | – | 90%
CCCCCCCCCCCCCCCCCC(=O)Oc1ccc(Cl)cc1C(=O)Nc1ccc([N+](=O)[O-])cc1Cl [Compound 62, 4-chloro-2-((2-chloro-4-nitrophenyl)carbamoyl)phenyl stearate] | 70% | –
C#CCOc1cc(N=[N+]=[N-])ccc1NC(=O)c1cc(Cl)ccc1O [Compound 37, N-(4-azido-2-(prop-2-yn-1-yloxy)phenyl)-5-chloro-2-hydroxybenzamide] | – | 40%
COc1ccc(C(=O)Nc2ccc([N+](=O)[O-])cc2Cl)c(O)c1 [Compound 53, N-(2-chloro-4-nitrophenyl)-2-hydroxy-4-methoxybenzamide] | – | 70%
CCCCC/C=C\C/C=C\CCCCCCCC(=O)Oc1ccc(Cl)cc1C(=O)Nc1ccc([N+](=O)[O-])cc1Cl [Compound 69, 4-chloro-2-((2-chloro-4-nitrophenyl)carbamoyl)phenyl (9Z,12Z)-octadeca-9,12-dienoate] | – | 85%
CS(=O)(=O)Nc1ccc(Cl)cc1C(=O)Nc1ccc([N+](=O)[O-])cc1Cl [Compound 51, 5-chloro-N-(2-chloro-4-nitrophenyl)-2-(methylsulfonamido)benzamide] | 70% | –
C#CCOc1cc([N+](=O)[O-])ccc1NC(=O)c1cc(Cl)ccc1O [Compound 33, 5-chloro-2-hydroxy-N-(4-nitro-2-(prop-2-yn-1-yloxy)phenyl)benzamide] | – | 45%
CCCCCCCC/C=C\CCCCCCCC(=O)Oc1ccc(Cl)cc1C(=O)Nc1ccc([N+](=O)[O-])cc1Cl [Compound 68, 4-chloro-2-((2-chloro-4-nitrophenyl)carbamoyl)phenyl oleate] | – | 60%

Same assay, conditions: Homo sapiens, HEK293, 8 h, Wnt-3A conditioned medium, 8 hour treatment; read-out: Inhibition Wnt/β-catenin transcription TopFlash IC50

IC50 | SMILES
370 ± 130 nM | O=c1oc2ccc(Cl)cc2c(=O)n1-c1ccc([N+](=O)[O-])cc1Cl [Compound 75, 6-chloro-3-(2-chloro-4-nitrophenyl)-2H-benzo[e][1,3]oxazine-2,4(3H)-dione]
500 nM | CCCCCCCCOC(=O)Oc1ccc(Cl)cc1C(=O)Nc1ccc([N+](=O)[O-])cc1Cl [Compound 72, 4-chloro-2-((2-chloro-4-nitrophenyl)carbamoyl)phenyl octyl carbonate]
1600 nM | CCCCCCC(=O)Oc1ccc(Cl)cc1C(=O)N(C(=O)CCCCCC)c1ccc([N+](=O)[O-])cc1Cl [Compound 77, 4-Chloro-2-((2-chloro-4-nitrophenyl)(heptanoyl)carbamoyl)phenyl heptanoate]

Same assay, conditions: Wnt-3A conditioned medium, 8 hour treatment; read-out: Inhibition Wnt/β-catenin transcription TopFlash IC50

IC50 | SMILES
> 12000 nM | O=C(Nc1ccc([N+](=O)[O-])cc1)c1cc(Cl)ccc1O [B, 5-chloro-2-hydroxy-N-(4-nitrophenyl)benzamide, reference compound]

Same assay, conditions: concentration not given

SMILES | Inhibition Wnt/β-catenin transcription TopFlash, result in words
COc1cc(O)c(C(=O)Nc2ccc(OCc3ccccc3)c(Cl)c2)cc1OC [Compound 47, N-(4-(benzyloxy)-3-chlorophenyl)-2-hydroxy-4,5-dimethoxybenzamide] | stimulates

Same assay, conditions: up to 10 μM

SMILES | Inhibition Wnt/β-catenin transcription TopFlash, result in words
COc1cc(O)c(C(=O)Nc2cccc(Cl)c2)cc1Cl [Compound 56, 5-chloro-N-(3-chlorophenyl)-2-hydroxy-4-methoxybenzamide] | No inhibition

Same assay, conditions: up to 12 μM

SMILES | Inhibition Wnt/β-catenin transcription TopFlash, result in words
O=C(Nc1ccc(C(F)(F)F)cc1)c1cnc2ccccc2c1O [Compound 49, 4-hydroxy-N-(4-(trifluoromethyl)phenyl)quinoline-3-carboxamide] | Stimulates up
COc1cc(O)c(C(=O)Nc2ccc([N+](=O)[O-])cc2Cl)cc1OC [Compound 46, N-(2-chloro-4-nitrophenyl)-2-hydroxy-4,5-dimethoxybenzamide] | No inhibit. up
